Source: ChEMBL document CHEMBL3797097 (J Med Chem, 2016)

How the values were obtained:
D(2) dopamine receptor [1] = biological target: T1, D(2) dopamine receptor (Homo sapiens, UniProt P14416); assay: biochemical; format: cell-based, HEK293
D(3) dopamine receptor [2] = biological target: T2, D(3) dopamine receptor (Homo sapiens, UniProt P35462); assay: Displacement of [3H]N-methylspiperone from human D3 receptor transfected in HEK293 cells measured after 60 mins by liquid scintillation counter; format: cell-based
T2 sequence (P35462 whole entry): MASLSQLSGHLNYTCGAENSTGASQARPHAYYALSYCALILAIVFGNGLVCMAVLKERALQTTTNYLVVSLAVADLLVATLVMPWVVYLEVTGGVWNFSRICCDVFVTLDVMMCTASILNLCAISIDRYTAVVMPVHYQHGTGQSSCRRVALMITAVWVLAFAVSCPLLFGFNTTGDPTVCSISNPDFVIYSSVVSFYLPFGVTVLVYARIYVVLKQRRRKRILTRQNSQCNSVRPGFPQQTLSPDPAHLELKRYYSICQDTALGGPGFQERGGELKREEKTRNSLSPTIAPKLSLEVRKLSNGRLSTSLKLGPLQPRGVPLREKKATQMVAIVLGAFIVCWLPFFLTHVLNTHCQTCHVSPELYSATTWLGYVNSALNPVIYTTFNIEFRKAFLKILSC

Homo sapiens [3] = species on record: Homo sapiens; assay: Selectivity index, ratio Ki for human D3 receptor to Ki for human D2 receptor using [3H]N-methylspiperone displacement assay
D(2) dopamine receptor [4] = biological target: T1, D(2) dopamine receptor; assay: biochemical; format: cell-based, HEK293; remark: listed apart in the source
D(3) dopamine receptor [5] = biological target: T2, D(3) dopamine receptor; assay: Displacement of [3H]7-OH-DPAT from human D3 receptor transfected in HEK293 cells measured after 60 mins by liquid scintillation counter; format: cell-based
Homo sapiens [6] = species on record: Homo sapiens; assay: Selectivity index, ratio Ki for human D3 receptor to Ki for human D2 receptor using [3H]7-OH-DPAT displacement assay
D(2) dopamine receptor [7] = biological target: T1, D(2) dopamine receptor; assay: Agonist activity at human D2 receptor transfected in HEK293T cells by BRET based G0 activation assay; format: cell-based, HEK-293T
D(3) dopamine receptor [8] = biological target: T2, D(3) dopamine receptor; assay: Agonist activity at human D3 receptor transfected in HEK293T cells by BRET based G0 activation assay; format: cell-based, HEK-293T
D(2) dopamine receptor [9] = biological target: T1, D(2) dopamine receptor; assay: Agonist activity at recombinant human D2 receptor expressing in CHOp cells assessed as receptor mediated stimulation of mitogenesis measured as [3H]thymidine incorporation after 24 hrs by scintillation spectrometry; format: cell-based
D(3) dopamine receptor [10] = biological target: T2, D(3) dopamine receptor; assay: Agonist activity at recombinant human D3 receptor expressing in CHOp cells assessed as receptor mediated stimulation of mitogenesis measured as [3H]thymidine incorporation after 24 hrs by scintillation spectrometry; format: cell-based

T1 sequence (P14416 whole entry): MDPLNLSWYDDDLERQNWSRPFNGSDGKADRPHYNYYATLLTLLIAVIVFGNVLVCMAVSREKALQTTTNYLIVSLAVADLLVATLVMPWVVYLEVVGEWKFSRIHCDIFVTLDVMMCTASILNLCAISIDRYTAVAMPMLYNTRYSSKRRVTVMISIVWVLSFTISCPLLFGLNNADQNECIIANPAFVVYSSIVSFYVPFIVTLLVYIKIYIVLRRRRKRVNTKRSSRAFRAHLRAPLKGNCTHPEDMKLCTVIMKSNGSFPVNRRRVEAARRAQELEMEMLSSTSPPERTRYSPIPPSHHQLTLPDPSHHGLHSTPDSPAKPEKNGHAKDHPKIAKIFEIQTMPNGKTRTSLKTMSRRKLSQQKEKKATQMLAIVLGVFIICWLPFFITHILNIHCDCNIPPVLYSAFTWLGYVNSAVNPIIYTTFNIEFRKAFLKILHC

SMILES	Ki (D(2) dopamine receptor [1]) [nM]	Ki (D(3) dopamine receptor [2]) [nM]	Ratio Ki (Homo sapiens [3])	Ki (D(2) dopamine receptor [4]) [nM]	Ki (D(3) dopamine receptor [5]) [nM]	Ratio Ki (Homo sapiens [6])	EC50 (D(2) dopamine receptor [7]) [nM]	EC50 (D(3) dopamine receptor [8]) [nM]	EC50 (D(2) dopamine receptor [9]) [nM]	EC50 (D(3) dopamine receptor [10]) [nM]
CCCN[C@@H]1Cc2cccc3c2n(c(=O)n3CCC)C1	868	47.9	0.06	8.08	21.7	2.7	68	1420	13	56.1
CN[C@@H]1Cc2cc(C#N)cc3[nH]c(=O)n(c23)C1	–	27200	–	5120	–	–	–	–	–	–
CN[C@@H]1Cc2cccc3[nH]c(=O)n(c23)C1 [SUMANIROLE]	–	6330	–	–	546	–	–	186	–	669
CN(CCCCNC(=O)c1ccc2c(c1)Cc1ccccc1-2)[C@@H]1Cc2cccc3[nH]c(=O)n(c23)C1	3700	1090	0.29	5.47	12.5	2.3	109	125	102	11.9
CCCN(CCC)[C@@H]1Cc2cccc3c2n(c(=O)n3CCC)C1	146	6.05	0.04	2.59	3.39	1.3	33.9	51.9	13.7	3.7
CCCN(CCC)[C@@H]1Cc2cccc3nc(O)n(c23)C1	–	–	–	–	–	2.4	–	–	–	–
CN(CCCCNC(=O)c1cc2ccccc2[nH]1)[C@@H]1Cc2cccc3[nH]c(=O)n(c23)C1	–	337	–	–	76.9	–	–	94.3	–	53
N[C@@H]1Cc2cccc3[nH]c(=O)n(c23)C1	12100	11800	0.98	114	3390	30	697	1890	684	3400
CCCN[C@@H]1Cc2cccc3nc(O)n(c23)C1	–	410	–	–	25.5	–	–	18.3	–	0.81
CCCCn1c(=O)n2c3c(cccc31)C[C@@H](NC)C2	361	10.3	0.03	12.8	142	11	30.5	25.6	83	22
CCCN(C)[C@@H]1Cc2cccc3[nH]c(=O)n(c23)C1	1180	290	0.25	12.5	104	8.3	29	30.7	18.1	148
CCCN(CCC)[C@@H]1Cc2cccc3[nH]c(=O)n(c23)C1	–	–	–	11.4	27.1	–	2.53	21.8	–	–
CCCn1c(=O)n2c3c(cccc31)C[C@@H](NC)C2	751	187	0.25	13.2	99.5	7.5	38.7	53.7	549	178
